Data reported in US8106048B2, “Heterocyclic NF-κB inhibitors” (4SC AG, priority 2004, dated 2012).

Each molecule was assayed on A549-NF-κB-SEAP reporter cells (assay: Inhibition of NF-κB-induced inflammation: […] NINA Instant Assay, TNF-α stimulated SEAP reporter). Conditions: % inhibition classes.
Type: cell-based
Text: For the determination of anti-inflammatory activity of the compounds the […]® NINA Instant Assay from Cell Culture Service GmBH was used. This assay is based on […] recombinant A549-NF-κB-SEAP reporter cells preceded in 96-well flat bottom plates. As the transfected reportergen for SEAP (secreted embryonic alkaline phosphatase) is under transcriptional control of a NF-κB-responsive element, the expression of this reporter is activated upon stimulation with TNF-α. SEAP secretion into the culture supernatant can be detected by the chemiluminescent substrate CSPD®. Test compounds that inhibit the NF-κB activation show reduced SEAP activity and reduced luminescent readout.
Following 18 h of reactivation at 37° C., 5% CO2 and 90% relative humidity, the cells were incubated with 0.01 up to 100 μM of test compound for 4.5 h before stimulation with 2 ng/ml TNF-α. After stimulation with TNF-α for 22 h endogenous phosphatases were inactivated and CSPD® substrate was supplied for 40 min. SEAP activity then was quantified by measuring luminescence as relative light units (RLU) using a Tecan Ultra reader. Each data point was recorded in quadruplicates and EC50 values were calculated via fitting function and the Microsoft Excel Solver.

Row | Structure (SMILES) | Biological activity (inhibition in the NF-κB inflammation assay)
1 | O=C(O)C=CC(=O)N1CCC(c2nc(C(=O)N3CCN(c4cccc(C(F)(F)F)c4)CC3)cs2)CC1 [compound 191] | + (“+” stands for 50-80% inhibition)
2 | O=C(c1csc(C2CCN(C(=O)c3ccccc3OC(F)(F)F)CC2)n1)N(Cc1ccc(Cl)cc1)Cc1ccc(Cl)cc1 [compound 110] | + (“+” stands for 50-80% inhibition)
3 | O=C(O)C1CCCCC1C(=O)N1CCC(c2nc(C(=O)N3CCN(c4cccc(C(F)(F)F)c4)CC3)cs2)CC1 (centres unmarked) [compound 189] | + (“+” stands for 50-80% inhibition)
4 | O=C(c1csc(N2CCN(Cc3ccccc3)CC2)n1)N1CCN(C(c2ccccc2)c2ccccc2)CC1 [compound 71] | +++ (“+++” stands for 90-100% inhibition)
5 | COc1nc(OC)nc(N2CCN(C(=O)c3csc(C4CCN(C(=O)Cc5ccc(F)cc5)CC4)n3)CC2)n1 [compound 126] | + (“+” stands for 50-80% inhibition)
6 | O=C(c1csc(C2CCN(Cc3cccc(OC(F)(F)F)c3)CC2)n1)N1CCN(c2cccc(C(F)(F)F)c2)CC1 [compound 115] | ++ (“++” means 80-90%)
7 | O=C(c1csc(C2CCN(c3cc(C(F)(F)F)ccn3)CC2)n1)N1CCN(c2cccc(C(F)(F)F)c2)CC1 [compound 118] | + (“+” stands for 50-80% inhibition)
8 | O=C(c1csc(C2CCN(S(=O)(=O)c3ccc(Br)s3)CC2)n1)N1CCN(c2cccc(C(F)(F)F)c2)CC1 [compound 203] | + (“+” stands for 50-80% inhibition)
9 | O=C(c1csc(N2CCN(C(=O)c3ccccc3OC(F)(F)F)CC2)n1)N1CCN(c2cccc(C(F)(F)F)c2)CC1 [compound 39] | +++ (“+++” stands for 90-100% inhibition)
10 | Cc1nnsc1C(=O)N1CCC(c2nc(C(=O)N3CCN(c4cccc(C(F)(F)F)c4)CC3)cs2)CC1 [compound 221] | + (“+” stands for 50-80% inhibition)
11 | O=C(c1csc(C2CCN(Cc3ccncc3)CC2)n1)N1CCN(c2cccc(C(F)(F)F)c2)CC1 [compound 107] | + (“+” stands for 50-80% inhibition)
12 | O=C(c1csc(N2CCN(c3ccc(F)cc3)CC2)n1)N1CCN(c2cccc(C(F)(F)F)c2)CC1 [compound 69] | ++ (“++” means 80-90%)
13 | COc1ccc(OC)c(N2CCC(c3nc(C(=O)N4CCN(c5cccc(C(F)(F)F)c5)CC4)cs3)CC2)c1 [compound 29] | ++ (“++” means 80-90%)
14 | O=C(Cc1ccc(F)cc1)N1CCC(c2nc(C(=O)N3CCC(n4nnc5ccccc54)CC3)cs2)CC1 [compound 182] | + (“+” stands for 50-80% inhibition)
15 | COc1ccc(Cl)cc1S(=O)(=O)N1CCC(c2nc(C(=O)N3CCN(c4cccc(C(F)(F)F)c4)CC3)cs2)CC1 [compound 202] | ++ (“++” means 80-90%)
16 | N#Cc1ccc(C(=O)N2CCC(c3nc(C(=O)N4CCN(c5cccc(C(F)(F)F)c5)CC4)cs3)CC2)cc1 [compound 70] | ++ (“++” means 80-90%)
17 | O=C(c1cc(C(F)(F)F)cc(C(F)(F)F)c1)N1CCN(c2nc(C(=O)N3CCN(c4cccc(C(F)(F)F)c4)CC3)cs2)CC1 [compound 59] | + (“+” stands for 50-80% inhibition)
18 | O=C(c1csc(C2CCN(C(=O)c3cc(-c4ccc(Cl)cc4)oc3C(F)(F)F)CC2)n1)N1CCN(c2cccc(C(F)(F)F)c2)CC1 [compound 218] | +++ (“+++” stands for 90-100% inhibition)
19 | O=C(Cc1ccc(F)cc1)N1CCC(c2nc(C(=O)N3CCc4ccccc4C3)cs2)CC1 [compound 163] | + (“+” stands for 50-80% inhibition)
20 | N=C(NC(=O)c1cnc(NC(=O)c2ccccc2OC(F)(F)F)s1)Nc1nc2ccccc2[nH]1 [compound 50] | +++ (“+++” stands for 90-100% inhibition)
21 | Cc1sc(C2CCN(C(=O)c3ccccc3OC(F)(F)F)CC2)nc1CC(=O)N1CCN(c2cccc(C(F)(F)F)c2)CC1 [compound 103] | ++ (“++” means 80-90%)

Row | Structure (SMILES) | Biological activity (inhibition in the NF-κB inflammation assay)
22 | O=C(O)c1cccc(O)c1C(=O)N1CCC(c2nc(C(=O)N3CCN(c4cccc(C(F)(F)F)c4)CC3)cs2)CC1 [compound 186] | + (“+” stands for 50-80% inhibition)
23 | O=C(c1csc(C2CCN(S(=O)(=O)c3ccc(OC(F)(F)F)cc3)CC2)n1)N1CCN(c2cccc(C(F)(F)F)c2)CC1 [compound 205] | + (“+” stands for 50-80% inhibition)
24 | CC(=O)c1ccc(N2CCN(c3nc(C(=O)N4CCN(c5cccc(C(F)(F)F)c5)CC4)cs3)CC2)cc1 [compound 66] | ++ (“++” means 80-90%)
25 | O=C(c1csc(C2CCN(S(=O)(=O)c3c(F)c(F)c(F)c(F)c3F)CC2)n1)N1CCN(c2cccc(C(F)(F)F)c2)CC1 [compound 193] | + (“+” stands for 50-80% inhibition)
26 | O=C(c1csc(C2CCN(C(=O)c3ccccc3OC(F)(F)F)CC2)n1)N1CCN(c2cccc(C(F)(F)F)c2)CC1 [compound 223] | +++ (“+++” stands for 90-100% inhibition)
27 | O=C(c1csc(C2CCN(S(=O)(=O)c3ccc(Cl)cc3Cl)CC2)n1)N1CCN(c2cccc(C(F)(F)F)c2)CC1 [compound 200] | ×
28 | NC(=Nc1nc2ccccc2[nH]1)NC(=O)c1csc(NC(=O)c2ccccc2OC(F)(F)F)n1 [compound 82] | +++ (“+++” stands for 90-100% inhibition)
29 | COc1cccc(C(=O)N2CCC(c3nc(C(=O)N4CCN(c5cccc(C(F)(F)F)c5)CC4)cs3)CC2)c1 [compound 209] | + (“+” stands for 50-80% inhibition)
30 | N=C(NC(=O)c1csc(C2CCN(C(=O)C(c3ccccc3)c3ccccc3)CC2)n1)Nc1nc2ccccc2[nH]1 [compound 93] | + (“+” stands for 50-80% inhibition)
31 | O=C(Cc1ccc(F)cc1)N1CCC(c2nc(C(=O)N3CCc4cc(O)c(O)cc4C3)cs2)CC1 [compound 160] | + (“+” stands for 50-80% inhibition)
32 | N#CC1(c2ccccc2)CCN(C(=O)c2csc(C3CCN(C(=O)Cc4ccc(F)cc4)CC3)n2)CC1 [compound 228] | + (“+” stands for 50-80% inhibition)
33 | O=C(c1csc(C2CCN(CCC(c3ccccc3)c3ccccc3)CC2)n1)N1CCN(c2cccc(C(F)(F)F)c2)CC1 [compound 35] | +++ (“+++” stands for 90-100% inhibition)
34 | O=C(c1csc(N2CCN(c3cccc(C(F)(F)F)c3)CC2)n1)N1CCN(c2cccc(C(F)(F)F)c2)CC1 [compound 67] | + (“+” stands for 50-80% inhibition)
35 | N=C(NC(=O)c1coc(NC(=O)c2ccccc2OC(F)(F)F)n1)Nc1nc2ccccc2[nH]1 [compound 28] | +++ (“+++” stands for 90-100% inhibition)
36 | O=C(c1csc(C2CCN(Cc3ccc(C(F)(F)F)cc3)CC2)n1)N1CCN(c2cccc(C(F)(F)F)c2)CC1 [compound 169] | + (“+” stands for 50-80% inhibition)
37 | O=C(Nc1ccc2c(c1)OCCO2)N1CCC(c2nc(C(=O)N3CCN(c4cccc(C(F)(F)F)c4)CC3)cs2)CC1 [compound 75] | ++ (“++” means 80-90%)
38 | COc1nc(OC)nc(N2CCC(c3nc(C(=O)N4CCN(c5cccc(C(F)(F)F)c5)CC4)cs3)CC2)n1 [compound 176] | + (“+” stands for 50-80% inhibition)
39 | O=C(Nc1ccc2c(c1)OCCO2)N1CCC(c2nc(C(=O)N3CCN(c4cccc(C(F)(F)F)c4)CC3)cs2)CC1 [compound 136] | + (“+” stands for 50-80% inhibition)
40 | COc1ccccc1N1CCN(C(=O)c2csc(NC(=O)c3ccccc3OC(F)(F)F)n2)CC1 [compound 44] | ++ (“++” means 80-90%)
41 | CC(C)(C)OC(=O)N1CCC(C(=O)N2CCN(c3cccc(C(F)(F)F)c3)CC2)CC1 [compound 125] | + (“+” stands for 50-80% inhibition)

Same assay, conditions: inhibition classes

Row | Structure (SMILES) | Biological activity (inhibition in the NF-κB inflammation assay)
42 | COc1cc(NC(=O)N2CCC(c3nc(C(=O)N4CCN(c5cccc(C(F)(F)F)c5)CC4)cs3)CC2)cc(OC)c1OC [compound 240] | ++ (“++” means 80-90%)
43 | O=C(Cc1ccc(F)cc1)N1CCC(c2nc(C(=O)N3CCN(c4ccccn4)CC3)cs2)CC1 [compound 237] | + (“+” stands for 50-80% inhibition)
44 | O=C(Cc1ccc(F)cc1)N1CCC(c2nc(C(=O)N3CCCC3c3ccc(F)cc3)cs2)CC1 (centres unmarked) [compound 236] | + (“+” stands for 50-80% inhibition)
